# Assay results as given in patent publication US20100028259A1, “USE OF ORGANIC CATION TRANSPORTERS FOR CANCER DIAGNOSIS AND THERAPY” (The Regents of the University of California, priority 2006, published 2010).
# Like-named read-outs stand apart in the source and are kept apart here.
# Columns and labels:
# [1] = tested on: HCT116; assay: MTT drug sensitivity, colon cancer cell line HCT116; format: cell-based, human
# Method: (§1) Cytotoxicity of the platinum-based compounds was measured by MTT (thiazolyl blue tetrazolium bromide) assay. Cells were seeded in 100 μl of the culture medium without any antibiotics in 96-well plates at a predetermined cell density. For HEK 293 cells, poly-D-lysine coated plates were used. […] For the OCT inhibitor studies, the inhibitors (i.e., disopyramide or cimetidine) were added to the medium at a specified concentration immediately before the addition of the platinum-based compounds. After incubation for a specified time period, the drug-containing medium was replaced with fresh, drug-free medium and the incubation was continued for a total of 72 hours (start from the addition of platinum-based compounds). Then, the MTT assay was performed similarly as described in Alley et al., Cancer Res., 48:589-601 (1988). […] The maximal cell growth was the cell growth in the medium without any platinum-based compounds; C is the concentration of the platinum-based compound, and γ is the slope factor.
# (§2) The cell seeding density was 6,000-, 8,000-, 6,000-, 15,000-12,000- and 4,000 cells/well for HCT116, HT29, RKO, SW620, LS180, and DLD cells, respectively. When cimetidine (1.5 mM) was used, it was added to the wells immediately before the addition of the platinum-based drugs. The resistance factor (RF) was defined as the ratio of the mean IC50 value in the presence to that in the absence of cimetidine. Data are expressed as mean±SD from six measurements, and each measurement was performed in quadruplicate.
# [2] = tested on: MDCK-MOCK cells; assay: MTT drug sensitivity assay in MDCK-MOCK cells; format: cell-based, canine
# Method: (§3) Cytotoxicity of the platinum-based compounds was measured by MTT (thiazolyl blue tetrazolium bromide) assay. Cells were seeded in 100 μl of the culture medium without any antibiotics in 96-well plates at a predetermined cell density. For HEK 293 cells, poly-D-lysine coated plates were used. After overnight incubation, the platinum-based compounds were then added to the culture medium to give the indicated final concentrations. For the OCT inhibitor studies, the inhibitors (i.e., disopyramide or cimetidine) were added to the medium at a specified concentration immediately before the addition of the platinum-based compounds. After incubation for a specified time period, the drug-containing medium was replaced with fresh, drug-free medium and the incubation was continued for a total of 72 hours (start from the addition of platinum-based compounds). Then, the MTT assay was performed similarly as described in Alley et al., Cancer Res., 48:589-601 (1988). […] The maximal cell growth was the cell growth in the medium without any platinum-based compounds; C is the concentration of the platinum-based compound, and γ is the slope factor.
# (§4) Briefly, the cells were seeded in 96-well plates at a density of 5,000 cells/well for the transfected MDCK cells or 12,000 cells/well for the transfected HEK 293 cells. The platinum-based drugs were added on the following day. After the specified time periods of drug exposure, the drug-containing medium was replaced with fresh, drug-free medium, and the incubation was continued for a total of 72 hours (start from the time when the drug was added). After incubation, the cell growth was determined by an MTT assay. Data are expressed as mean±SD from 3 to 6 independent experiments with each performed in quadruplicate. The resistance factor (RF) was defined as the ratio of the mean IC50 value in the MOCK cells to that in the OCT-transfected cells.
# (§5) Briefly, MDCK cells were seeded at a density of 5,000 cells/well in 96-well plates and exposed to the test compounds for 7 hours on the following day. After incubation for a total of 72 hours, the cell growth was determined by an MTT assay. The data for carboplatin was taken from Table 1 and was not determined simultaneously with the other compounds. The resistance factor (RF) was defined as the ratio of the mean IC50 value in MDCK-MOCK cells to that in MDCK-hOCT1 cells. Data are expressed as mean±SD from six measurements, and each measurement was performed in quadruplicate.
# [3] = tested on: MDCK-hOCT1 cells; assay: MTT drug sensitivity assay in MDCK-hOCT1 cells; format: cell-based, canine
# Method: as §1, §4, §5
# [4] = tested on: HEK-MOCK cells; assay: MTT drug sensitivity assay in HEK-MOCK cells (control of HEK-hOCT3); format: cell-based, human; details: Table 3
# Method: as §3, §4
# [5] = tested on: MDCK-hOCT1 cells; assay: Cellular accumulation of platinum in MDCK-hOCT1 cells (ICP-MS); format: in vitro ADME, canine; details: 2-hr exposure
# Method: For the inhibitor studies, the incubation medium also contained disopyramide (150 μM). […] For the inhibitor studies, the incubation medium also contained cimetidine (1.5 mM). […] After drug exposure, the cells were washed with ice-cold PBS three times and harvested by scraping and centrifugation. The cell-associated platinum was determined by ICP-MS and normalized for protein content. Data are expressed as mean±SD from a single experiment performed in triplicate. Experiments were replicated for OCT1 and OCT2, and similar results were obtained.
# The cellular accumulation of platinum was determined as described in Holzer et al., Mol. Pharmacol., 66:817-823 (2004) with some modifications. Briefly, the cells were grown in 100 mm×20 mm dishes in the culture medium without any antibiotics to over 90% confluence. For HEK 293 cells, poly-D-lysine coated dishes were used. For platinum accumulation, the cells were incubated in the culture medium containing the indicated concentrations of the platinum compounds at 37° C. in 5% CO2 for 2 hr unless specified. After incubation, the dishes were immediately placed on ice and the cells were washed with 6 ml of ice-cold PBS for three times and collected with a rubber policeman. The cell pellets were obtained by centrifugation at 400×g and at 4° C. for 15 min. For the OCT inhibitor studies, the incubation medium also contained the indicated inhibitor (i.e., disopyramide or cimetidine) in addition to the platinum-based compounds. The resulting cell pellets were then dissolved into 200 μl of 70% nitric acid at 65° C. for at least 2.5 hours, and then distilled water containing 10 ppb of iridium (Sigma) and 0.1% Triton X-100 was added to the samples to dilute nitric acid to 7%. The platinum content was measured by inductively plasma coupled mass spectrometry (ICP-MS) in the Analytical Facility at the University of California at Santa Cruz (Santa Cruz, Calif.). Cell lysates from a set of identical cultures were used for BCA protein assay.
# [6] = tested on: RKO; assay: MTT drug sensitivity, colon cancer cell line RKO; format: cell-based, human
# Method: as §1, §2
compound,measurement,setting,value
O=C1[O][Pt]2([NH][C@@H]3CCCC[C@H]3[NH]2)[O]C1=O [oxaliplatin],IC50,"[1]; HCT116, absence of cimetidine, read-out: IC50 Control",2.37 ± 1.44 µM
same,IC50,"[1]; HCT116, cimetidine 1.5 mM, read-out: IC50 Cimetidine-treated",18.8 ± 6.19 µM
same,IC50,"[2]; SAR study Table 4, 7 hours of drug exposure, read-out: IC50 MDCK-MOCK",10.9 ± 3.66 µM
same,IC50,"[2]; co-incubation with disopyramide 150 μM, read-out: IC50 in MDCK-MOCK, disopyramide-treated",32.2 ± 13 µM
same,IC50,"[2]; disopyramide study (FIG. 2D), without disopyramide, read-out: IC50 in MDCK-MOCK, control",30.4 ± 9.28 µM
same,IC50,"[2]; drug exposure 7 hour, MTT at 72 hours, Table 1, read-out: IC50 MDCK-MOCK",33 ± 9.12 µM
same,IC50,"[2]; drug exposure 24 hour, MTT at 72 hours, Table 1, read-out: IC50 MDCK-MOCK",14.3 ± 5.55 µM
same,IC50,"[2]; drug exposure 72 hour, Table 1, read-out: IC50 MDCK-MOCK",9.64 ± 1.85 µM
same,IC50,"[3]; SAR study Table 4, 7 hours of drug exposure, read-out: IC50 MDCK-hOCT1",0.48 ± 0.19 µM
same,IC50,"[3]; co-incubation with disopyramide 150 μM, read-out: IC50 in MDCK-hOCT1, disopyramide-treated",22.8 ± 10.5 µM
same,IC50,"[3]; disopyramide study (FIG. 2D), without disopyramide, read-out: IC50 in MDCK-hOCT1, control",3.79 ± 1.57 µM
same,IC50,"[3]; drug exposure 7 hour, MTT at 72 hours, Table 1, read-out: IC50 MDCK-hOCT1",3.89 ± 1.3 µM
same,IC50,"[3]; drug exposure 24 hour, MTT at 72 hours, Table 1, read-out: IC50 MDCK-hOCT1",1.79 ± 0.58 µM
same,IC50,"[3]; drug exposure 72 hour, Table 1, read-out: IC50 MDCK-hOCT1",1.68 ± 0.27 µM
same,IC50,[4]; drug exposure 7 hour,1.47 ± 0.28 µM
same,IC50,[4]; drug exposure 24 hour,0.47 ± 0.05 µM
same,IC50,[4]; drug exposure 72 hour,0.47 ± 0.12 µM
same,"cellular platinum accumulation rate in MDCK-hOCT1, disopyramide-treated","[5]; 3 μM, disopyramide 150 μM",4.04±0.04 pmol/mg protein-hr
same,cellular platinum accumulation rate in MDCK-hOCT1,[5]; drug 3 μM,8.53±0.52 pmol/mg protein-hr
same,effect of disopyramide on platinum accumulation rate in MDCK-hOCT1,[5]; disopyramide 150 μM,two-fold decrease
same,IC50,"[6]; absence of cimetidine, read-out: IC50 Control",1.64 ± 0.56 µM
same,IC50,"[6]; cimetidine 1.5 mM, read-out: IC50 Cimetidine-treated",9.7 ± 2.7 µM
